One assay has as its target T1, AuroraB (Homo sapiens, UniProt Q96GD4).
T1 construct: 20 μL of AuroraB FL H is for a final volume of 41 μL; His
As to the kind of experiment: AuroraB Homogeneous Time Resolved Fluorescent (HTRF) kinase assay. The class given is biochemical. Conditions: average; read-out: AurB_IC50_IP (uM Avg). In outline:
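Read-out is time-resolved FRET between europium anti-phospho-H3 antibody and streptavidin-APC, added in EDTA buffer to stop the reaction and equilibrated about 60 min (ex 320, em 615 and 655 nm). Preceding reaction: ~90 min, full-length enzyme, ATP, 0.1 μM biotin-Histone H3 substrate, Mg/Mn HEPES buffer pH 7.5.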
For orientation: In TR-FRET formats the signal depends on donor and acceptor labels being close together.

A further assay concerns the target T2, AuroraA-TPX2 (Homo sapiens, UniProt O14965).
T2 construct: 20 μL of AuroraA-TPX2 KD GST for a final volume of about 41 μL; GST
T2 sequence (O14965 133-383 limits assumed): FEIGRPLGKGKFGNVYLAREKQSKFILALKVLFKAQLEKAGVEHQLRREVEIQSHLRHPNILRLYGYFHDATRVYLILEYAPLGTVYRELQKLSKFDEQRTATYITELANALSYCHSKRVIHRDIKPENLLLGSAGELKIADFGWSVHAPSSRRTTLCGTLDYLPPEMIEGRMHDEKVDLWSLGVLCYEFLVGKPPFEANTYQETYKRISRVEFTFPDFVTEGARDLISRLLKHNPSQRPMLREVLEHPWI
T2 sequence (Q9ULW0 1-43 partner limits assumed): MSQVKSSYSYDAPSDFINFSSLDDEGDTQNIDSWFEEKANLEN
As to the kind of experiment: AuroraA-TPX2 Homogeneous Time Resolved Fluorescent (HTRF) kinase assay. It counts as biochemical. Conditions: average; read-out: AurA_IC50_IP (uM Avg). In outline:
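HTRF read-out (Eu 615 nm to APC 655 nm) of phosphorylated biotin-PLK, detected with 0.02 nM europium anti-phosphoPLK antibody and 0.0005 mg/mL SA-APC after overnight equilibration.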

T1 sequence (Q96GD4 whole entry): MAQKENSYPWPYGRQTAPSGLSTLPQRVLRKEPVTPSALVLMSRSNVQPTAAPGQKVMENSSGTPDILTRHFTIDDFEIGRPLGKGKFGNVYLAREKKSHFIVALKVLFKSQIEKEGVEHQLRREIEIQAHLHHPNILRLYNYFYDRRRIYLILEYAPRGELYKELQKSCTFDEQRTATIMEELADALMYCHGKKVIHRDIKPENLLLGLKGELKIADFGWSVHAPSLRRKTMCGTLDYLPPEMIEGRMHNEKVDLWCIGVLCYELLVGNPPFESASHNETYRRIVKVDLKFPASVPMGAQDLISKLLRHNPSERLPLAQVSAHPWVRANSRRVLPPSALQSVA

For `COc1cnc2c(Oc3ccc(Nc4nnc(-c5cn[nH]c5)c5ccccc45)cc3)ccnc2c1` [compound 212, N-(4-((7-(methyloxy)-1,5-naphthyridin-4-yl)oxy)phenyl)-4-(1H-pyrazol-4-yl)-1-phthalazinamine], the IC50 at AuroraB was 0.018 µM; at AuroraA-TPX2 it was 0.478 µM.

With `COc1cnc2c(Sc3ccc(Nc4nnc(-c5ccc6occc6c5)c5ccccc45)cc3)ccnc2c1` [compound 501], the figures for the IC50 at AuroraB and on AuroraA-TPX2 were 0.058 µM and 0.029 µM, respectively.

As to `COc1ccc2c(Cc3ccc(Nc4nnc(-c5ccc(Cl)cc5)c5ccccc45)cc3)ccnc2c1` [compound 328, 4-(4-chlorophenyl)-N-(4-((7-(methyloxy)-4-quinolinyl)methyl)phenyl)-1-phthalazinamine], the IC50 on AuroraB was found to be 0.032 µM; at AuroraA-TPX2, 0.047 µM.

Consider `COc1cnc2c(Sc3ccc(Nc4nnc(N5CCC(Cl)CC5)c5ccccc45)cc3)ccnc2c1` [compound 527], for which the IC50 worked out at 0.138 µM at AuroraB and 0.036 µM on AuroraA-TPX2.

On to `COc1cnc2c(Oc3ccc(Nc4nnc(-c5ccc(Cl)cc5)c5c4CCC5)cc3)ccnc2c1` [compound 411], for which the IC50 on AuroraB and at AuroraA-TPX2 was more than 25 µM each time.

With `COc1ccc(-c2nnc(Nc3ccc(Sc4ccnc5cc(OC)cnc45)cc3)c3ccccc23)cc1` [compound 357, N-(4-(7-methoxy-1,5-naphthyridin-4-ylthio)phenyl)-4-(4-methoxyphenyl)phthalazin-1-amine], the IC50 is 0.012 µM on AuroraB and 0.029 µM at AuroraA-TPX2.

Regarding `COc1cnc2c(Oc3ccc(Nc4nnc(-c5ccc(OC)c(C)c5)c5ccccc45)cc3)ccnc2c1` [compound 213, 4-(3-methyl-4-(methyloxy)phenyl)-N-(4-((7-(methyloxy)-1,5-naphthyridin-4-yl)oxy)phenyl)-1-phthalazinamine], the IC50 was 0.011 µM at AuroraB and 0.079 µM on AuroraA-TPX2.

`COc1cc2nccc(Sc3ccc(Nc4nnc(-c5ccc(Cl)cc5)c5ccccc45)cc3)c2[nH]c1=O` [Example 406, 8-(4-(4-(4-Chlorophenyl)phthalazin-1-ylamino)phenylthio)-3-methoxy-1,5-naphthyridin-2(1H)-one]: the IC50 at AuroraB is 0.186 µM; at AuroraA-TPX2, 0.034 µM.

For the molecule `COc1cnc2c(Sc3ccc(Nc4nnc(N5CCN(C)CC5)c5ccccc45)cc3)ccnc2c1` [compound 503], the figures for the IC50 on AuroraB and on AuroraA-TPX2 were 0.007 µM and 0.02 µM, respectively.

`Clc1ccc(-c2nnc(Nc3ccc(Sc4ccnc5c4CCCN5)cc3)c3ccccc23)cc1` [compound 570]: the IC50 was found to be 0.008 µM on AuroraB and 0.05 µM at AuroraA-TPX2.

On to `COc1cnc2c(Sc3ccc(Nc4nnc(N5CCN(C(C)=O)CC5)c5ccccc45)cc3)ccnc2c1` [compound 608], for which the results for the IC50 on AuroraB and at AuroraA-TPX2 were 0.022 µM and 0.352 µM, respectively.

In the case of `COc1cnc2c(Oc3ccc(Nc4nnc(-c5cccnc5F)c5ccccc45)cc3)ccnc2c1` [compound 191, 4-(2-fluoro-3-pyridinyl)-N-(4-((7-(methyloxy)-1,5-naphthyridin-4-yl)oxy)phenyl)-1-phthalazinamine], the values for the IC50 on AuroraB and at AuroraA-TPX2 were 0.009 µM and 0.104 µM, respectively.

Consider `COc1cnc2c(Sc3ccc(Nc4nnc(-c5ccc(Cl)cn5)c5ccccc45)cc3)ccnc2c1` [compound 325, 4-(5-chloro-2-pyridinyl)-N-(4-((7-(methyloxy)-1,5-naphthyridin-4-yl)thio)phenyl)-1-phthalazinamine], for which the IC50 at AuroraB came out at 0.019 µM; on AuroraA-TPX2 it was 0.013 µM.

Consider `CC(C)n1ccc2nccc(Sc3ccc(Nc4nnc(-c5ccc(Cl)cc5)c5ccccc45)cc3)c21` [compound 471, 4-(4-chlorophenyl)-N-(4-((1-(1-methylethyl)-1H-pyrrolo[3,2-b]pyridin-7-yl)thio)phenyl)-1-phthalazinamine], for which the figures for the IC50 on AuroraB and at AuroraA-TPX2 were 0.049 µM and 0.09 µM, respectively.

In the case of `CCc1cc(-c2ccccc2)nnc1Nc1ccc(Oc2ccnc3cc(OC)cnc23)cc1` [compound 108, 4-ethyl-N-(4-((7-(methyloxy)-1,5-naphthyridin-4-yl)oxy)phenyl)-6-phenyl-3-pyridazinamine], the IC50 on AuroraB was found to be 0.004 µM; on AuroraA-TPX2, 0.016 µM.

With `COc1cnc2c(Oc3ccc(Nc4nnc(-c5cncnc5)c5ccccc45)cc3)ccnc2c1` [compound 215, N-(4-((7-(methyloxy)-1,5-naphthyridin-4-yl)oxy)phenyl)-4-(5-pyrimidinyl)-1-phthalazinamine], the IC50 on AuroraB was determined as 0.024 µM; on AuroraA-TPX2, 0.743 µM.

Take `FC1(F)Oc2ccc(-c3nnc(Nc4ccc(Sc5ccnc6cccnc56)cc4)c4ccccc34)cc2O1` [compound 444]: the IC50 on AuroraB is 0.022 µM; on AuroraA-TPX2, 0.128 µM.

In the case of `COc1cc(F)cc2nccc(Sc3ccc(Nc4nnc(-c5ccc(Cl)cc5)c5ccccc45)cc3)c12` [compound 438], the values for the IC50 at AuroraB and on AuroraA-TPX2 were 0.051 µM and 0.112 µM, respectively.

Turning to `COc1cnc2c(Oc3ccc(Nc4nnc(-c5ccncc5OC)c5ccccc45)cc3)ccnc2c1` [compound 130, N-(4-((7-(methyloxy)-1,5-naphthyridin-4-yl)oxy)phenyl)-4-(3-(methyloxy)-4-pyridinyl)-1-phthalazinamine], the IC50 at AuroraB was found to be 0.1 µM; on AuroraA-TPX2, 0.654 µM.

Regarding `COc1cnc2c(Oc3ccc(Nc4nnc(N5CC[C@H]6CCCC[C@@H]6C5)c5ccccc45)cc3)ccnc2c1` [compound 586], the IC50 at AuroraB turned out to be 0.042 µM; at AuroraA-TPX2 it was 0.124 µM.

Regarding `COc1cnc2c(Oc3ccc(Nc4nnc(-c5ccc(C)c(N)c5)c5cc(F)c(F)cc45)cc3)ccnc2c1` [compound 545], the IC50 on AuroraB was determined as 0.02 µM; at AuroraA-TPX2 it was 0.085 µM.

Regarding `COc1cc2ncnc(Sc3ccc(Nc4nnc(-c5ccc(Cl)cc5)c5ccccc45)cc3)c2cc1OC` [compound 418], the IC50 at AuroraB came to 0.012 µM; at AuroraA-TPX2, 0.028 µM.

For `c1ccc(-c2nnc(Nc3ccc(Oc4ccnc5cc(-c6ccsc6)ccc45)cc3)c3ccccc23)cc1` [compound 339, 4-phenyl-N-(4-(7-(thiophen-3-yl)quinolin-4-yloxy)phenyl)phthalazin-1-amine], the results for the IC50 at AuroraB and at AuroraA-TPX2 were 0.028 µM and 0.021 µM, respectively.

As to `c1ccc(-c2nnc(Nc3ccc(Oc4ccnc5c4NCCC5)cc3)c3ccccc23)cc1` [compound 230, 4-phenyl-N-(4-(5,6,7,8-tetrahydro-1,5-naphthyridin-4-yloxy)phenyl)-1-phthalazinamine], the IC50 was found to be 0.031 µM on AuroraB and 5 µM at AuroraA-TPX2.

As to `COc1cnc2c(Oc3ccc(Nc4nnc(-c5ccnc(Cl)c5)c5ccccc45)cc3)ccnc2c1` [compound 283, 4-(2-chloro-4-pyridinyl)-N-(4-((7-(methyloxy)-1,5-naphthyridin-4-yl)oxy)phenyl)-1-phthalazinamine], the IC50 at AuroraB came out at 0.01 µM; on AuroraA-TPX2 it was 0.1 µM.

`Cn1cc(-c2ccc3nccc(Oc4ccc(Nc5nnc(-c6ccccc6)c6ccccc56)cc4)c3c2)cn1` [Example 45, N-(4-(6-(1-Methyl-1H-pyrazol-4-yl)quinolin-4-yloxy)phenyl)-4-phenylphthalazin-1-amine]: the IC50 came to 0.03 µM at AuroraB and 0.079 µM at AuroraA-TPX2.

With `COc1cnc2c(Oc3ccc(Nc4nnc(-c5cccc(C#N)c5)c5ccccc45)cc3)ccnc2c1` [Example 29, 3-(4-(4-(7-methoxy-1,5-naphthyridin-4-yloxy)phenylamino)phthalazin-1-yl)benzonitrile], the IC50 at AuroraB worked out at 0.018 µM; at AuroraA-TPX2 it was 0.139 µM.

With `Cc1ccc(-c2nnc(Nc3ccc(Sc4ccnc5ccoc45)cc3)c3ccccc23)cn1` [compound 481], the IC50 is 0.002 µM on AuroraB and 0.341 µM at AuroraA-TPX2.

With `Nc1ccc2nccc(Sc3ccc(Nc4nnc(-c5ccccc5)c5ccccc45)cc3)c2c1` [Example 399, N-(4-(6-Aminoquinolin-4-ylthio)phenyl)-4-phenylphthalazin-1-amine], the IC50 worked out at 0.025 µM on AuroraB and 0.286 µM on AuroraA-TPX2.

Regarding `COc1cnc2c(Oc3ccc(Nc4nnc(-c5ccc(C(C)(C)C)cc5)c5ccccc45)cc3)ccnc2c1` [Example 38, 4-(4-tert-butylphenyl)-N-(4-(7-methoxy-1,5-naphthyridin-4-yloxy)phenyl)phthalazin-1-amine], the IC50 on AuroraB stood at 0.017 µM; at AuroraA-TPX2, 0.023 µM.

Turning to `COc1cnc2c(Oc3ccc(Nc4nnc(C#CC(C)(C)C)c5ccccc45)cc3)ccnc2c1` [Example 31, 4-(3,3-dimethylbut-1-ynyl)-N-(4-(7-methoxy-1,5-naphthyridin-4-yloxy)phenyl)phthalazin-1-amine], the IC50 at AuroraB is 0.008 µM; on AuroraA-TPX2, 0.033 µM.

With `CCOc1nc(-c2nnc(Nc3ccc(Sc4ccnc5cc(OC)cnc45)cc3)c3ccccc23)cs1` [compound 505], the IC50 was found to be 0.014 µM on AuroraB and 0.016 µM at AuroraA-TPX2.

Consider `COc1cnc2c(Oc3ccc(Nc4nnc(-c5cccc(C)c5)c5ccccc45)cc3)ccnc2c1` [compound 299, N-(4-((7-(methyloxy)-1,5-naphthyridin-4-yl)oxy)phenyl)-4-(3-methylphenyl)-1-phthalazinamine], for which the results for the IC50 at AuroraB and on AuroraA-TPX2 were 0.015 µM and 0.018 µM, respectively.

For the origin of these results see patent US8557816B2, “Aurora kinase modulators and method of use” (Amgen Inc., priority 2007, dated 2013).
